From US20090035287A1, “ATRIAL NATRIURETIC PEPTIDE (ANP) SPLICE VARIANTS AND METHODS OF USING SAME” (priority 2005, published 2009)
Bridge positions count the residues as written; N and C are the ends. Ends that are not written are not given here.

B1: ANP-49 (variant) (peptide)
peptide: TAPRSLRRSSCFGGRMDRIGAQSGLGCNSFRELNWLRPLMEQPLLSLME
modifications: disulfide 11-27
B2: ANP-45 (variant) (peptide)
peptide: SLRRSSCFGGRMDRIGAQSGLGCNSFRELNWLRPLMEQPLLSLME
modifications: disulfide 7-23

Columns and labels:
[1] = test system: spontaneously hypertensive rats (SHR); test: Renal and cardiovascular effects in anesthetized spontaneously hypertensive rats, 30-min intravenous infusion; type: in vivo, rat; conditions: for heart rate change: i.v. 30-min infusion
Protocol: The assay was performed with anesthetized spontaneously hypertensive rats (SHR) following intravenous administration of the various ANP-proteins by a 30-min infusion.
Male Wistar-Okamoto derived spontaneously hypertensive rats (SHR) provided by National Laboratory Animal Center were used. Space allocation for 6 rats was 45×23×15 cm. All animals were maintained in a controlled temperature (23° C.-24° C.) and humidity (60%-70%) environment with 12 hours light dark cycles for at least one week in MDS Pharma Services—Taiwan Laboratory prior to use. Free access to standard lab chow (Laboratory Rodent Diet MF-18; Oriental Yeast Co., Ltd. Japan) and RO water was granted. All aspects of this work including housing, experimentation and disposal of animals were performed in general accordance with the Guide for the Care and Use of Laboratory Animals (National Academy Press, Washington, D.C., 1996).
Groups of 5 male rats (SHR) weighing 250-300 g were employed. Rats were anaesthetized with Inactin (120 mg/kg i.p.). The left carotid artery, jugular vein, and bladder were cannulated with polyethylene (PE50) catheters. The arterial cannula was connected via a Statham (P 23×L) pressure transducer to a NEC/San-Ei Type 366 polygraph for direct mean arterial blood pressure measurements. Heart rate was derived from pulse pressure signals and monitored on a Data Acquisition and Analytic System (Power Lab 8/SP, AD Instruments, Australia). The body temperature was kept at 37° C. using a thermostat-controlled hot plate. The animals were primed with 1 ml 2.5% dextrose+0.45% NaCl intravenously, followed by continuous infusion of the same solution at a rate of 2.4 ml/hr with an infusion pump throughout the experiments. After an equilibration period of 30 min, a 30-min control urine sample was collected. Test compounds were dissolved in 2.5% dextrose+0.45% NaCl and delivered by infusion for 30 min at 2.4 ml/hr. […] The infusion rate was 2.4 ml/hr. Urine samples were collected through the catheter during infusion of peptides and in the two 30-min post-peptide periods. Urinary Na^+ concentration was measured with an atomic absorption spectrometer. All values represent mean±SEM and Dunnett's test was applied for comparison between corresponding time points for each drug-treated and control groups. Differences were considered significant at P<0.05.

[2] = biological target: T1, membrane-bound guanylyl cyclase (Rattus norvegicus, UniProt P18910); test: cGMP accumulation after activation of membrane-bound guanylyl cyclase in isolated rat lung membranes; type: biochemical
T1 construct: from tissue; host or cells: lung of Wistar rats (membrane preparation)
T1 sequence (P18910 29-1057): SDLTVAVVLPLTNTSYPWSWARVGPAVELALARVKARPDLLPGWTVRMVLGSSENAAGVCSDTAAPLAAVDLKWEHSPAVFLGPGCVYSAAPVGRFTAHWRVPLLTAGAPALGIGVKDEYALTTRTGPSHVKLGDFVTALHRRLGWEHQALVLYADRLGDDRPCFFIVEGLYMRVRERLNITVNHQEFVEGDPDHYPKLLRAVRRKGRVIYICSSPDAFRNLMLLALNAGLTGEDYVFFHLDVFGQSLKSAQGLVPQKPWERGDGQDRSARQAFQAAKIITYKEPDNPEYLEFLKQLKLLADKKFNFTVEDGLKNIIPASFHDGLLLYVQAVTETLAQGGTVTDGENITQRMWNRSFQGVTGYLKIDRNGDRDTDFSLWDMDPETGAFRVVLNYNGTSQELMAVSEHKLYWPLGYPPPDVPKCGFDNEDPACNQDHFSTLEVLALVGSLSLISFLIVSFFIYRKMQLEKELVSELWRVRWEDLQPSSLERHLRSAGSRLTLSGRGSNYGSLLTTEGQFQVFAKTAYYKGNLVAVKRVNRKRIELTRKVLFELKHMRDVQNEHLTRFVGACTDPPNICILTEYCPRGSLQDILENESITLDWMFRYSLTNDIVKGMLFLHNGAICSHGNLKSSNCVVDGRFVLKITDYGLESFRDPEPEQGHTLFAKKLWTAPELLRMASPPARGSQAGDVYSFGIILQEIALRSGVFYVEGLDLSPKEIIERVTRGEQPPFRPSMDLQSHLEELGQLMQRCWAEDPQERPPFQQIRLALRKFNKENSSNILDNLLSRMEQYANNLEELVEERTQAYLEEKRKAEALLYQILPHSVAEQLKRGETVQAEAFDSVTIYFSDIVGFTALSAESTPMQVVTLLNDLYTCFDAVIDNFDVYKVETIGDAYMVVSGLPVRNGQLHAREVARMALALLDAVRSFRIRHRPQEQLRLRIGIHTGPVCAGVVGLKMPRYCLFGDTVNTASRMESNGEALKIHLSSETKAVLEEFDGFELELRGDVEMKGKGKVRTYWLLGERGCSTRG
Protocol: The agonist-like activity of the ANP variant peptides was evaluated by in vitro assays designed to measure cGMP accumulation after activation of membrane-bound guanylyl cyclase. Guanylyl cyclases (GC) are a family of enzymes (EC 4.6.1.2) that catalyse the formation of the second messenger cyclic GMP (cGMP) from GTP. Activation of GCs leads to an increase in the concentration of the intracellular messenger molecule cGMP. GCs are subdivided into soluble GCs and GCs that are membrane-bound and linked to a receptor. Activation occurs through binding of nitric oxide (NO) and peptide hormones, respectively. Six different isoforms of membrane-bound GC (GC-A, GC-B, GC-C, GC-D, GC-E and GC-F) are known. The guanylyl cyclase A (GC-A) isoform acts as the receptor for the natriuretic peptides ANP and BNP.
As ANP is known to stimulate GC-A, the effect of known and variant ANP peptides on guanlyl cyclase was examined. The procedure employed was essentially as described in Glover V, et al., 1995 Life Sci. 57(22): 2073-2079; Nashida T, Imai A and Shimomura H (2000), Mol Cell Biochem. 208(1-2): 27-35. Briefly, membrane-bound guanylyl cyclase isolated from the lung of Wistar rats was used. […] The reaction was terminated by addition of 1 N HCl and the supernatant evaluated for cGMP level by EIA. Enzyme activity was determined spectrophotometrically by measuring the formation of cGMP. […]

[3] = biological target: T2, membrane-bound guanylyl cyclase isolated from the lung of Wistar rats (rat, UniProt P18910 29-1057); test: cell-based or functional assay
T2 sequence (looked up): T1 sequence (P18910 29-1057)

[4] = i.v. infusion 1 μg/kg/min × 30 min
[5] = i.v. infusion 3 μg/kg/min × 30 min
[6] = i.v. infusion 1 and 3 μg/kg/min × 30 min

| Molecule | heart rate change [1] | cGMP accumulation, agonist activity in words [2] | absolute change of mean arterial pressure (MAP-infusion minus MAP-baseline) [1, 4] [mmHg] | absolute change of mean arterial pressure (MAP-infusion minus MAP-baseline) [1, 5] [mmHg] | urine volume (diuresis) [1, 5] | cGMP accumulation after activation of membrane-bound guanylyl cyclase (EIA), EC50 [3] [nM] | also measured |
| --- | --- | --- | --- | --- | --- | --- | --- |
| CC[C@H](C)[C@@H]1NC(=O)[C@H](CCCNC(=N)N)NC(=O)[C@H](CC(=O)O)NC(=O)[C@H](CCSC)NC(=O)[C@H](CCCNC(=N)N)NC(=O)CNC(=O)CNC(=O)[C@H](Cc2ccccc2)NC(=O)[C@@H](NC(=O)[C@H](CO)NC(=O)[C@H](CO)NC(=O)[C@H](CCCNC(=N)N)NC(=O)[C@H](CCCNC(=N)N)NC(=O)[C@H](CC(C)C)NC(=O)[C@@H](N)CO)CSSC[C@@H](C(=O)N[C@@H](CC(N)=O)C(=O)N[C@@H](CO)C(=O)N[C@@H](Cc2ccccc2)C(=O)N[C@@H](CCCNC(=N)N)C(=O)N[C@@H](Cc2ccc(O)cc2)C(=O)O)NC(=O)CNC(=O)[C@H](CC(C)C)NC(=O)CNC(=O)[C@H](CO)NC(=O)[C@H](CCC(N)=O)NC(=O)[C@H](C)NC(=O)CNC1=O [Carperitide, reference compound] | less pronounced | – | – | – | – | – | – |
| SLRRSSCFGGRMDRIGAQSGLGCNSFRELNWLRPLMEQPLLSLME (disulfide 7-23) [ANP-45] | decrease in heart rate | level comparable to the known control molecules | −28 | −37 | pronounced diuresis, similar in magnitude to that of Carperitide | – | urinary sodium excretion (natriuresis) [1, 6]: dose-dependent increase in urinary sodium excretion; urine volume (diuresis), dose dependence [1, 6]: dose-dependent increase in urine volume |
| TAPRSLRRSSCFGGRMDRIGAQSGLGCNSFRELNWLRPLMEQPLLSLME (disulfide 11-27) [ANP-49] | decrease in heart rate | level comparable to the known control molecules | −1 | −23 | even higher increase in urine volume relative to Carperitide | – | urine volume (diuresis) [1, 4]: such effect was not observed |
| CC[C@H](C)[C@@H]1NC(=O)[C@H](CCCNC(=N)N)NC(=O)[C@H](CC(=O)O)NC(=O)[C@H](CCSC)NC(=O)[C@H](CCCNC(=N)N)NC(=O)CNC(=O)CNC(=O)[C@H](Cc2ccccc2)NC(=O)[C@@H](NC(=O)[C@H](CO)NC(=O)[C@H](CO)NC(=O)[C@H](CCCNC(=N)N)NC(=O)[C@H](CCCNC(=N)N)NC(=O)[C@H](CC(C)C)NC(=O)[C@@H](N)CO)CSSC[C@@H](C(=O)N[C@@H](CC(N)=O)C(=O)N[C@@H](CO)C(=O)N[C@@H](Cc2ccccc2)C(=O)N[C@@H](CCCNC(=N)N)C(=O)N[C@@H](Cc2ccc(O)cc2)C(=O)O)NC(=O)CNC(=O)[C@H](CC(C)C)NC(=O)CNC(=O)[C@H](CO)NC(=O)[C@H](CCC(N)=O)NC(=O)[C@H](C)NC(=O)CNC1=O [ANP-28, reference compound] | – | – | – | – | – | – | heart rate change ([1]; listed as ANP28): decrease in heart rate |
| B1 | – | – | – | – | – | 138 | – |
| B2 | – | – | – | – | – | 86.3 | – |
